What was measured:
[1] = target: T1, Neutrophil elastase (Homo sapiens, UniProt P08246); experiment: Inhibitory concentration against human neutrophil elastase (HNE); No inhibition
T1 sequence (P08246 whole entry): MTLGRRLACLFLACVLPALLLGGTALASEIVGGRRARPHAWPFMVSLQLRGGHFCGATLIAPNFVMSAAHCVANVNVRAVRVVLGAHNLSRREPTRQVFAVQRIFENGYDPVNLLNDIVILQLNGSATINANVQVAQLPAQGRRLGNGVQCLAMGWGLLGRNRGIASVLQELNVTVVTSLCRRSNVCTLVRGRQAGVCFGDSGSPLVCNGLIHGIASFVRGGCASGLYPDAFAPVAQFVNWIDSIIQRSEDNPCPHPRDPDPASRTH

[2] = target: T2, Chymotrypsin-like elastase family member 2A (Sus scrofa, UniProt P08419); experiment: Inhibitory concentration against porcine pancreatic elastase (PPE); No inhibition
T2 sequence (P08419 whole entry): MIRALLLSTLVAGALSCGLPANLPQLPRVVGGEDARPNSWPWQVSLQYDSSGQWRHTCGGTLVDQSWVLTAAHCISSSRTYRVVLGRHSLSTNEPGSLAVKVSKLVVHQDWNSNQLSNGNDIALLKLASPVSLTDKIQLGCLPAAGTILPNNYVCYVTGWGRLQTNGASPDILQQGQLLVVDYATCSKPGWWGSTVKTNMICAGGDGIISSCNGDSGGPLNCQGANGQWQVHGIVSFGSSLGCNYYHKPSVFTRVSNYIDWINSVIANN

[3] = target: T1, Neutrophil elastase; experiment: Inhibitory concentration against human neutrophil elastase (HNE)

Which IC50 [1] does the source give for CCC(C)[C@H]1C(=O)N(Cc2ccccc2)CCN1S(=O)(=O)c1ccc(C)cc1 (stereo partly specified) here?
The IC50 was “Not Active”.

For CC(C)C[C@@H]1NCCN(Cc2ccccc2)C1=O, which IC50 [1] is on record?
The IC50 was “Not Active”.

And the IC50 [2]?
The IC50 was “Not Active”.

Which results are given for CC(C)C[C@H]1C(=O)NCCN1C(=O)OC(C)(C)C?
IC50 [1]: Not Active; IC50 [2]: Not Active

Which results are given for CCC(C)[C@@H]1NCCN(Cc2ccccc2)C1=O (stereo partly specified)?
IC50 [1]: Not Active; IC50 [2]: Not Active

With CCC(C)[C@@H]1NCCNC1=O (stereo partly specified) as the molecule, how does the IC50 [1] read?
The IC50 was “Not Active”.

And the IC50 [2]?
The IC50 was “Not Active”.

With CC(C)C[C@@H]1NCCNC1=O as the molecule, how does the IC50 [1] read?
Its IC50 is “Not Active”.

And the IC50 [2]?
The IC50 was “Not Active”.

Which IC50 [3] does the source give for Cc1ccc(S(=O)(=O)N2CCN(Cc3ccccc3)C(=O)[C@@H]2CC(C)C)cc1 here?
The IC50 was 28 µM.

How did the IC50 [1] turn out when CCC(C)[C@H]1C(=O)NCCN1C(=O)OC(C)(C)C (stereo partly specified) was run?
The IC50 was “Not Active”.

What about the IC50 [2] of the same molecule?
Its IC50 is “Not Active”.

Which IC50 [1] does the source give for CCC(C)[C@H]1C(=O)N(S(=O)(=O)c2ccc(C)cc2)CCN1S(=O)(=O)c1ccc(C)cc1 (stereo partly specified) here?
The IC50 was “Not Active”.

And the IC50 [2]?
Its IC50 is “Not Active”.
